Source: US7993687B2, “Compositions and methods for management of diabetes” (priority 2006, dated 2011)
“Also recorded” adds a separate entry of the source.

Assays:
[1] = system: Insulin receptor (Tyr1146); experiment: Western blot of insulin receptor phosphorylation in H4IIE cells; assay type: cell-based, rat; settings: 6 minutes
Experimental: Tissue culture media, antibiotics, fetal bovine serum (FBS) and Nunc tissue culture plates were purchased from Invitrogen Canada Inc. (Burlington, Ontario, Canada, L7P 1A1). Insulin (Sigma-Aldrich Canada Ltd., Oakville, Ontario, Canada, L6H 6J8) was dissolved in water and added directly to cells at a concentration of 250 nM unless otherwise indicated. The BWE was prepared and analyzed as described in Example 1. Two μL of the BWE were added directly to cells unless otherwise indicated. This amount was chosen on the basis of equivalence to insulin. Myo-inositol (Sigma-Aldrich Canada Ltd.) and D-chiro-inositol (Industrial Research Ltd., Wellington, New Zealand) were dissolved in water at an equal concentration to the amounts present in the BWE (Table 3) and 2 μL of each solution (0.1% v/v final concentration) was added directly to cells.
Rat H4IIE hepatoma cells (American Type Culture Collection, CRL 1548) were cultured following the method disclosed by Yau et al., (1998, Eur. J. Biochem. 253: 91-1). The H4IIE cells were maintained in α-modified Eagle's media containing 10% FBS, 2 mM glutamine, 25 μg·mL^−1 streptomycin and 25 units·mL^−1 penicillin. Cells were plated and grown to 70% confluence. All cells were placed into serum-free medium for 72 h before addition of stimulating agents to ensure entry into a quiescent state. […]
Cellular protein extracts were prepared by addition of 200 μL 2×SDS/gel loading buffer (0.125 M Tris pH 6.8, 2% SDS, 10% glycerol) to H4IIE cells in 12-well culture dishes. The samples were briefly sonicated, and protein content measured using the BCA protein assay kit. […] HRP was detected using the ECL chemiluminescent system after the membranes had been washed four times.
Quantification of data obtained on film (Kodak X-omat) was accomplished with a GS800 imaging densitometer (Bio-Rad Laboratories) under nonsaturating conditions with local background subtraction. […]

H4IIE cells = experiment: 3H-deoxyglucose uptake by H4IIE cells; assay type: cell-based, rat; settings: for 3H-deoxy-glucose uptake (basal) by H4IIE cells: insulin 10^-6 M, 2 μL (0.4% v/v) of BWE, D-CI or MI, versus untreated cells
Experimental: Tissue culture media, antibiotics, fetal bovine serum (FBS) and Nunc tissue culture plates were purchased from Gibco-BRL (division of Invitrogen Canada Inc.). Insulin (Sigma-Aldrich Canada Ltd.) was dissolved in water and added directly to cells at a final concentration of 10^−6 M. The buckwheat extract was prepared and analyzed as in Example 1. Two μL of the buckwheat extract were added directly to cells unless otherwise indicated. Myo-inositol (Sigma Aldrich Canada Ltd.) and D-chiro-inositol (Industrial Research Ltd.) were dissolved in water at an equal concentration to the amounts present in the BWE (Table 3) and 2 μL of each solution was added directly to cells.
Rat H4IIE hepatoma cells (American Type Culture Collection, CRL 1548) were cultured as described in Example 3. Briefly, cells were maintained in α-modified Eagle's media containing 10% FBS, 2 mM glutamine, 50 μg·mL^−1 streptomycin and 50 μg·mL^−1 penicillin. Cells were plated and grown to 70% confluence. All cells were placed into serum-free medium for 72 h before addition of stimulating agents to ensure entry into a quiescent state.
^3H-deoxyglucose uptake was assayed using the method disclosed by Harrison et al. (1990, J. Biol. Chem. 265(10):5793-5801). Quiescent H4IIE cells, in 24-well culture dishes containing 1 mL serum-free medium, were washed three times with physiological salt solution (PSS) ([…], pH 7.4). Cells were placed into 0.5 mL PSS and pre-incubated with inhibitors for 10 minutes prior to the 20 minute stimulation with treatments (insulin, BWE, D-CI, MI). For all experiments, insulin was added at a concentration of 10^−6 M whereas 2 μL volumes of the BWE, D-CI, or MI (0.4% v/v final concentration) were added to cells unless otherwise indicated in figures. Sugar uptake was initiated by the addition of ^3H-deoxyglucose to a final assay concentration of 0.1 mM glucose (1 mCi/mL) and the cells were subsequently incubated for 5 minutes at 37° C. After two rapid washes with ice-cold PSS (0.5-1 mL/well), the cells were solubilized with 0.4 mL of 0.1% SDS, and ^3H was detected in 3 mL of EcoLume scintillant (MP Biomedicals Inc., Costa Mesa, Calif., USA, 92626).
Statistical significance between treatments was determined by one-way ANOVA and by Duncan's multiple range test for means testing (SAS v.9.1, SAS Institute Inc., Cary, N.C.). […] Data are expressed as the mean±SE.
Since insulin has the same effect, we compared the ability of BWE, insulin and two insulin-mimetic compounds (D-CI and MI) to stimulate glucose uptake by H4IIE hepatoma cells. […] Radio-labelled deoxyglucose was added to the medium and glucose uptake was determined by the detection of ^3H in cells.
Fractions (˜1.0 ml) from each solvent extraction were collected and assayed for their effects on MAPK activation as described in Example 3. The effects of selected fractions, alone or in combination with insulin, on the uptake of labelled glucose were assessed following the methods described in Example 4. […] The effects of the solvent fractions on H4IIE cells were assessed with 20-min exposure periods after which, sugar uptake was initiated by the addition of ^3H-deoxyglucose to a final assay concentration of 0.1 mM glucose (1 mCi/mL) and the cells were subsequently incubated for 5 minutes at 37° C. After two rapid washes with ice-cold PSS (0.5-1 mL/well), the cells were solubilized with 0.4 mL of 0.1% SDS, and ^3H was detected in 3 mL of EcoLume scintillant. […]

Compound | phosphorylation of InsR [1] | 3H-deoxy-glucose uptake (basal) by H4IIE cells (H4IIE cells) | effect of the inhibitor on insulin-stimulated glucose uptake (FIG. 23) (H4IIE cells; H4IIE cells, pre-incubated with inhibitor, then insulin)
OC1C(O)C(O)C(O)C(O)C1O [D-CI, D-chiro-inositol] | do not provide comparable stimulation | stimulated glucose uptake | –
O[C@H]1[C@H](O)[C@@H](O)[C@H](O)[C@@H](O)[C@H]1O [MI, myo-inositol] | do not provide comparable stimulation | not statistically different from untreated cells | –
COc1cccc(-c2cc(=O)c3ccccc3o2)c1N [PD98059] | – | – | decreased insulin-stimulated glucose uptake
insulin: Insulin (Sigma-Aldrich) dissolved in water, positive comparator | phosphorylated in response to insulin; also recorded: stimulated by insulin only | stimulated glucose uptake | –
